Patent US20250009903A1, “PEPTIDE-BINDING HYBRID LIPOSOME EXOSOME, PEPTIDE-BINDING EXOSOME, COMPOSITION CONTAINING SAME, AND METHOD OF FORMING SAME” (SEKISUI CHEMICAL CO., LTD., priority 2021, published 2025)

Tested on: HepG2 cells
Test: Influence of peptide-binding MSC-derived / HEK293 cell-derived exosome solutions on cell growth (Experimental Example 5)
Format: cell-based
Protocol: After the sample medium was added, culturing was performed for 48 hours, and using the 8-channel pipette, washing was performed twice with 100 μl of a serum-free DMEM medium (H-Glc). A 10% FBS (exosome-depleted) DMEM (H-Glc) medium was added at 100 μl/well. In addition, after culturing was performed for 48 hours, Premix WST-1 Cell Proliferation Assay System (reagent for cell growth measurement, commercially available from Takara Bio Inc.) was added at 10 μl/well, and color development was performed by performing incubation for 2 hours under […] conditions. The absorbance at 440 nm was measured using “Synergy HTX Multimode Plate Reader” (culture plate absorptiometer, commercially available from Bio Tek Instruments, Inc.). The average absorbance of the control group (no liposome added) was set as 100, the percentage of the absorbance of each well was calculated and used as an index of the degree of cell growth. Here, the Tukey Kramer method was used for the multiple comparison test.
A solution of a peptide having an amino acid sequence shown in SEQ ID NO: 1 was added to a 20 mM borate buffer solution (pH 8.6). In addition, Lipofectamine (registered trademark) (solution for transfection) was dissolved in a serum-free DMEM to prepare a 10% Lipofectamine solution. […]

Sequence: WEAALAEALAEALAEHLAEALAEALEALAA (Amino acid sequence derived from a protein fragment) [peptide]
- % with respect to control group (degree of cell growth) (Table 6A, Adipo-MSC-derived exosome 40 μg/ml, peptide SEQ ID NO: 1, DOX liposome 40 μM, n=6): 147.2%
- % with respect to control group (degree of cell growth) (Table 6B, HEK293 cell-derived exosome 40 μg/ml, peptide SEQ ID No. 1, DOX liposome 40 μM): 141.3%
